Measured values: US20060223996A1, “IL-12 modulatory compounds” (Synta Pharmaceuticals Corp., priority 2004, published 2006)

Tested on: IL-12
Assay: Human in vitro assay: inhibition of IL-12 production in IFNγ/LPS- or IFNγ/SAC-stimulated human PBMC or THP-1 cells (ELISA)
Format: cell-based
Settings: read-out: IC50 Range (representative in vitro IC50 data)
Summary of the method: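 Sandwich ELISA for IL-12 (p70, p40) on supernatants collected 18 h after stimulation gave IC50 values; MTS monitored viability. THP-1 cells: IFNγ 100 U/mL priming 22 h, SAC 0.025%. PBMC: IFNγ 30 U/mL for 22 h plus LPS 1 μg/mL, or IFNγ 100 U/mL plus SAC 0.01%. Final DMSO 0.25%.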

SMILES	IC50
COCCN(C)c1cc(C(=O)Nc2cc(C(C)(C)C)on2)nc(N2CCOCC2)n1 [Compound 228, 6-[(2-Methoxy-ethyl)-methyl-amino]-2-morpholin-4-yl-pyrimidine-4-carboxylic acid (5-tert-butyl-isoxazol-3-yl)-amide]	≥ 1 µM
COCCN(C)c1cc(C(=O)NCCc2ccc(C)cc2)nc(N2CCOCC2)n1 [Compound 233, 6-[(2-Methoxy-ethyl)-methyl-amino]-2-morpholin-4-yl-pyrimidine-4-carboxylic acid (2-p-tolyl-ethyl)-amide]	≥ 1 µM
COCCN(C)c1cc(C(=O)Nc2ccc(N3CCOCC3)c(C(N)=O)c2)nc(N2CCOCC2)n1 [Compound 234, 6-[(2-Methoxy-ethyl)-methyl-amino]-2-morpholin-4-yl-pyrimidine-4-carboxylic acid (3-carbamoyl-4-morpholin-4-yl-phenyl)-amide]	≥ 1 µM
COCCN(C)c1cc(C(=O)Nc2nnc(C(C)(C)C)s2)nc(N2CCOCC2)n1 [Compound 236, 6-[(2-Methoxy-ethyl)-methyl-amino]-2-morpholin-4-yl-pyrimidine-4-carboxylic acid (5-tert-butyl-[1,3,4]thiadiazol-2-yl)-amide]	≥ 1 µM
COCCN(C)c1cc(C(=O)Nc2ccc3c(C(F)(F)F)cc(C(F)(F)F)nc3n2)nc(N2CCOCC2)n1 [Compound 243, 6-[(2-Methoxy-ethyl)-methyl-amino]-2-morpholin-4-yl-pyrimidine-4-carboxylic acid (5,7-bis-trifluoromethyl-[1,8]naphthyridin-2-yl)-amide]	≥ 1 µM
Cc1[nH]c2ccc(NC(=O)c3cc(OCCN4CCNCC4)nc(N4CCOCC4)n3)cc2c1C [Compound 246, N-(2,3-dimethyl-1H-indol-5-yl)-2-morpholino-6-(2-(piperazin-1-yl)ethoxy)pyrimidine-4-carboxamide]	< 1 µM
CNc1cc(C(=O)Nc2ccc3[nH]c(C)c(C)c3c2)nc(N2CCOCC2)n1 [Compound 247, N-(2,3-dimethyl-1H-indol-5-yl)-6-(methylamino)-2-morpholino-pyrimidine-4-carboxamide]	< 1 µM
Cc1[nH]c2ccc(NC(=O)c3cc(N(C)C)nc(N4CCOCC4)n3)cc2c1C [Compound 248, N-(2,3-dimethyl-1H-indol-5-yl)-6-(dimethylamino)-2-morpholino-pyrimidine-4-carboxamide]	< 1 µM
Cc1[nH]c2ccc(NC(=O)c3cc(OCCS(C)(=O)=O)nc(N4CCOCC4)n3)cc2c1C [Compound 249, N-(2,3-dimethyl-1H-indol-5-yl)-6-(2-(methylsulfonyl)ethoxy)-2-morpholinopyrimidine-4-carboxamide]	≥ 1 µM
Cc1[nH]c2ccc(NC(=O)c3cc(OCCC#N)nc(N4CCOCC4)n3)cc2c1C [Compound 250, 6-(2-cyanoethoxy)-N-(2,3-dimethyl-1H-indol-5-yl)-2-morpholinopyrimidine-4-carboxamide]	< 1 µM
Cc1[nH]c2ccc(NC(=O)c3cc(N4CCN(C)CC4)nc(N4CCOCC4)n3)cc2c1C [Compound 251, N-(2,3-dimethyl-1H-indol-5-yl)-6-(4-methylpiperazin-1-yl)-2-morpholinopyrimidine-4-carboxamide]	< 1 µM
COCCNc1cc(C(=O)Nc2ccc3[nH]c(C)c(C)c3c2)nc(N2CCOCC2)n1 [Compound 252, N-(2,3-dimethyl-1H-indol-5-yl)-6-(2-methoxyethylamino)-2-morpholinopyrimidine-4-carboxamide]	< 1 µM
Cc1cc(C(=O)Nc2ccc3[nH]c(C)c(C)c3c2)nc(N2CCOCC2)n1 [Compound 253, N-(2,3-dimethyl-1H-indol-5-yl)-6-methyl-2-morpholinopyrimidine-4-carboxamide]	< 1 µM
Cc1[nH]c2ccc(NC(=O)c3cc(O)nc(N4CCOCC4)n3)cc2c1C [Compound 254, N-(2,3-dimethyl-1H-indol-5-yl)-6-hydroxy-2-morpholinopyrimidine-4-carboxamide]	< 1 µM
Cc1[nH]c2ccc(NC(=O)c3cc(Nc4ccc5[nH]c(C)c(C)c5c4)nc(N4CCOCC4)n3)cc2c1C [Compound 255, N-(2,3-dimethyl-1H-indol-5-yl)-6-(2,3-dimethyl-1H-indol-5-ylamino)-2-morpholinopyrimidine-4-carboxamide]	< 1 µM
CCN(CC)C(=O)COc1cc(C(=O)Nc2ccc3[nH]c(C)c(C)c3c2)nc(N2CCOCC2)n1 [Compound 256, 6-(2-(diethylamino)-2-oxoethoxy)-N-(2,3-dimethyl-1H-indol-5-yl)-2-morpholinopyrimidine-4-carboxamide]	< 1 µM
CC(=O)N1CCN(c2cc(C(=O)Nc3ccc4[nH]c(C)c(C)c4c3)nc(N3CCOCC3)n2)CC1 [Compound 257, 6-(4-acetylpiperazin-1-yl)-N-(2,3-dimethyl-1H-indol-5-yl)-2-morpholinopyrimidine-4-carboxamide]	< 1 µM
COCCN(CCOC)c1cc(C(=O)Nc2ccc3[nH]c(C)c(C)c3c2)nc(N2CCOCC2)n1 [Compound 258, 6-(bis(2-methoxyethyl)amino)-N-(2,3-dimethyl-1H-indol-5-yl)-2-morpholinopyrimidine-4-carboxamide]	< 1 µM
Cc1[nH]c2ccc(NC(=O)c3cc(CN4CCOCC4)nc(N4CCOCC4)n3)cc2c1C [Compound 259, N-(2,3-dimethyl-1H-indol-5-yl)-2-morpholino-6-(morpholinomethyl)pyrimidine-4-carboxamide]	< 1 µM

The next lines start with the values.

IC50	SMILES
≥ 1 µM	COCCN(C)c1cc(C(=O)Nc2cccc(C#CC(C)(C)O)c2)nc(N2CCOCC2)n1 [Compound 226, 6-[(2-Methoxy-ethyl)-methyl-amino]-2-morpholin-4-yl-pyrimidine-4-carboxylic acid [3-(3-hydroxy-3-methyl-but-1-ynyl)-phenyl]-amide]
≥ 1 µM	COCCN(C)c1cc(C(=O)Nc2cc(-c3ccc(Cl)cc3)nn2C)nc(N2CCOCC2)n1 [Compound 227, 6-[(2-Methoxy-ethyl)-methyl-amino]-2-morpholin-4-yl-pyrimidine-4-carboxylic acid [5-(4-chloro-phenyl)-2-methyl-2H-pyrazol-3-yl]-amide]
≥ 1 µM	COCCN(C)c1cc(C(=O)Nc2ccc(C(C)C)c(C)c2)nc(N2CCOCC2)n1 [Compound 229, 6-[(2-Methoxy-ethyl)-methyl-amino]-2-morpholin-4-yl-pyrimidine-4-carboxylic acid (4-isopropyl-3-methyl-phenyl)-amide]
≥ 1 µM	COCCN(C)c1cc(C(=O)Nc2ccc(Br)c(C)c2)nc(N2CCOCC2)n1 [Compound 230, 6-[(2-Methoxy-ethyl)-methyl-amino]-2-morpholin-4-yl-pyrimidine-4-carboxylic acid (4-bromo-3-methyl-phenyl)-amide]
≥ 1 µM	COCCN(C)c1cc(C(=O)Nc2cccc(S(C)(=O)=O)c2)nc(N2CCOCC2)n1 [Compound 231, 6-[(2-Methoxy-ethyl)-methyl-amino]-2-morpholin-4-yl-pyrimidine-4-carboxylic acid (3-methanesulfonyl-phenyl)-amide]
≥ 1 µM	COCCN(C)c1cc(C(=O)Nc2cccc(C(=O)c3ccccc3)c2)nc(N2CCOCC2)n1 [Compound 232, 6-[(2-Methoxy-ethyl)-methyl-amino]-2-morpholin-4-yl-pyrimidine-4-carboxylic acid (3-benzoyl-phenyl)-amide]
≥ 1 µM	COCCN(C)c1cc(C(=O)Nc2cccc(-c3nn(C)cc3Br)c2)nc(N2CCOCC2)n1 [Compound 235, 6-[(2-Methoxy-ethyl)-methyl-amino]-2-morpholin-4-yl-pyrimidine-4-carboxylic acid [3-(4-bromo-1-methyl-1H-pyrazol-3-yl)-phenyl]-amide]
≥ 1 µM	COCCN(C)c1cc(C(=O)Nc2cc(C)on2)nc(N2CCOCC2)n1 [Compound 237, 6-[(2-Methoxy-ethyl)-methyl-amino]-2-morpholin-4-yl-pyrimidine-4-carboxylic acid (5-methyl-isoxazol-3-yl)-amide]
≥ 1 µM	COCCN(C)c1cc(C(=O)Nc2cc(C)cc(C)n2)nc(N2CCOCC2)n1 [Compound 238, 6-[(2-Methoxy-ethyl)-methyl-amino]-2-morpholin-4-yl-pyrimidine-4-carboxylic acid (4,6-dimethyl-pyridin-2-yl)-amide]
≥ 1 µM	COCCN(C)c1cc(C(=O)Nc2cc(C)ns2)nc(N2CCOCC2)n1 [Compound 239, 6-[(2-Methoxy-ethyl)-methyl-amino]-2-morpholin-4-yl-pyrimidine-4-carboxylic acid (3-methyl-isothiazol-5-yl)-amide]
≥ 1 µM	COCCN(C)c1cc(C(=O)Nc2nc(C)cc(C)n2)nc(N2CCOCC2)n1 [Compound 240, 6-[(2-Methoxy-ethyl)-methyl-amino]-2-morpholin-4-yl-pyrimidine-4-carboxylic acid (4,6-dimethyl-pyrimidin-2-yl)-amide]
≥ 1 µM	COCCN(C)c1cc(C(=O)Nc2ccc3nc(C)c(C)nc3c2)nc(N2CCOCC2)n1 [Compound 241, 6-[(2-Methoxy-ethyl)-methyl-amino]-2-morpholin-4-yl-pyrimidine-4-carboxylic acid (2,3-dimethyl-quinoxalin-6-yl)-amide]
≥ 1 µM	COCCN(C)c1cc(C(=O)Nc2cccc(-c3cnc4ccccc4n3)c2)nc(N2CCOCC2)n1 [Compound 242, 6-[(2-Methoxy-ethyl)-methyl-amino]-2-morpholin-4-yl-pyrimidine-4-carboxylic acid (3-quinoxalin-2-yl-phenyl)-amide]
≥ 1 µM	COCCN(C)c1cc(C(=O)Nc2cccc(OC(F)(F)F)c2)nc(N2CCOCC2)n1 [Compound 244, 6-[(2-Methoxy-ethyl)-methyl-amino]-2-morpholin-4-yl-pyrimidine-4-carboxylic acid (3-trifluoromethoxy-phenyl)-amide]
< 1 µM	COCCN(C)c1cc(C(=O)Nc2cccc(-c3csc(C)n3)c2)nc(N2CCOCC2)n1 [Compound 245, 6-[(2-Methoxy-ethyl)-methyl-amino]-2-morpholin-4-yl-pyrimidine-4-carboxylic acid [3-(2-methyl-thiazol-4-yl)-phenyl]-amide]
